Experimental data taken from patent publication US20130171263A1, “Snake Powder Extract For Treatment Of Cancer” (priority 2006, published 2013).

Columns and labels:
[1] = test system: tumor cell lines (K562, Raji, Jurkatt, CEM, MCF-7, MDA-MB-231, MD-MB-468, LNCaP, PC-3, HT-29, HCT-116, PANC-1, GL10-1); assay: Tumor cell proliferation, oxygen biosensor; assay type: cell-based; settings: DMSO, ethanol and PBS solutions, at least 24 hour incubation, FIGS. 6-8
Text: Referring to FIGS. 6, 7, and 8 the effect of snake extract on tumor cell proliferation utilizing the DMSO, ethanol, and PBS solutions, is respectively analyzed. The methodology used to analyze tumor cell proliferation was oxygen biosensor. With this methodology culture plates are coated with an oxygen sensitive fluorescent compound embedded in a gas-permeable and hydrophobic matrix permanently attached to the bottom of a multi-well plate. The amount of fluorescence correlates directly to the rate of oxygen consumption in the well, providing a signal that can be directly correlated to cell growth.
In the experiments in FIGS. 1-8, the experiments were done with an effective amount of each analyzed target cancer cell lines dissolved within each snake extract solution measured as noted in each Figure for at least a 24 hour incubation period.
The following cell lines were utilized in the tests listed above: • Leukemia/Lymphoma: K562, Raji, Jurkatt, CEM; • Breast Carcinoma MCF-7, MDA-MB-231, MD-MB-468; • Prostate Carcinoma LNCaP, PC-3; • Colorectal Carcinoma: HT-29, HCT-116; • Pancreatic Carcinoma: PANC-1; • Gliobastaoma: GL10-1.

Artemia salina = assay: Brine shrimp lethality assay; assay type: in vivo; settings: 24 h, nauplii
Protocol: The eggs of brine shrimp, Airtime salina (Leach), are used in monitoring bioactive compounds. The eggs are readily available in pet shops at low cost and remain viable for years in the dry state. The brine shrimp assay has advantages of being rapid (24 hrs), inexpensive, and simple. No aseptic techniques are required. It easily utilizes a large number of organisms for statistical validation and requires no special equipment and a relatively small amount of sample.
The assay was carried out with Artemia salina eggs. 50 mg of Artemia salina eggs in a beaker containing sea salt (6 g), yeast (0.9 mg) and distilled water (150 ml) were incubated at 27-28° C. for 24 hrs. The newly hatched nauplii were concentrated. From this volume, aliquots of 50 μl (approximately 18-20 nauplii) were pipette directly into a 24 well plates containing sea water (sw), −ve control (DMSO+sw), +ve control (emetine) or different concentrations of extracts (62.5-500 μg/ml). Assay was carried out in triplicate. The plates were sealed and incubated at 27-28° C. for 24 h. At the end of the 24-h incubation period, the content of each well was pipette into a watch glass individually. Survival was assessed by scoring the number of dead nauplii using a microscope. Once counts of dead nauplii had been taken, 0.5 ml of methanol was added to kill all remaining nauplii. The contents of each well were then recorded and result tabulated as (X/Y; where X=number dead and Y=number of dead and alive).

MDA-MB-435 tumor masses = settings: cited from earlier work
breast cancer cells = settings: cited from earlier work
angiogenesis = settings: elicited by basic fibroblast growth factor; cited from earlier work
B16F10 solid tumor = settings: cited from earlier work

CC[C@@]1(O)C(=O)OCc2c1cc1n(c2=O)Cc2cc3ccccc3nc2-1 [Camptothecin]
inhibiting cell proliferation [1]: more effective at inhibiting cell proliferation of different cell lines than the snake powder extract

CC[C@H]1CN2CCc3cc(OC)c(OC)cc3[C@@H]2C[C@@H]1C[C@H]1NCCc2cc(OC)c(OC)cc21 [Emetine]
% mortality (Artemia salina; concentration 62.5 (extracts 62.5-500 μg/ml)): 58.2% | % mortality (Artemia salina; concentration 125 (extracts 62.5-500 μg/ml)): 100% | % mortality (Artemia salina; concentration 250 (extracts 62.5-500 μg/ml)): 100% | % mortality (Artemia salina; concentration 500 (extracts 62.5-500 μg/ml)): 100%

Contortrostatin
angiogenesis induced by breast cancer (MDA-MB-435 tumor masses; immunohistochemical quantitation of vascular endothelial cells in tumor tissue): inhibiting angiogenesis | inhibited growth of tumor (MDA-MB-435 tumor masses; injected daily at 5 microgram per mouse): 74% | cytotoxicity to cancer cells (breast cancer cells): not cytotoxic | proliferation of the breast cancer cells in vitro (breast cancer cells): does not inhibit proliferation

Rhodostomin
angiogenesis (angiogenesis): inhibit angiogenesis | survival (B16F10 solid tumor; C57BL/6 mice): prolonged survival | tumor growth (B16F10 solid tumor; subcutaneously inoculated B16F10 solid tumor): suppressed tumor growth
